Data as given in patent US20190032115A1, “GENETIC TESTING FOR […] GRAM-NEGATIVE PROTEUS AGAINST ANTIMICROBIAL AGENTS” (Ares Genetics GmbH, priority 2015, published 2019).

Test system: Proteus strains (583 clinical isolates)
Assay: Antimicrobial susceptibility testing (AST) on frozen reference panels, minimal inhibitory concentration (MIC) read visually
Type: cell-based, Proteus mirabilis, Proteus penneri and Proteus vulgaris
Details: classical AST
Experimental: The inventors selected 583 Proteus strains from the microbiology strain collection at Siemens Healthcare Diagnostics (West Sacramento, Calif.) for susceptibility testing and whole genome sequencing.
Frozen reference AST panels were prepared following Clinical Laboratory Standards Institute (CLSI) recommendations. The following antimicrobial agents (with μg/ml concentrations shown in parentheses) were included in the panels: Amoxicillin/K Clavulanate (0.5/0.25-64/32), Ampicillin (0.25-128), Ampicillin/Sulbactam (0.5/0.25-64/32), Aztreonam (0.25-64), Cefazolin (0.5-32), Cefepime (0.25-64), Cefotaxime (0.25-128), Ceftazidime (0.25-64), Ceftriaxone (0.25-128), Cefuroxime (1-64), Cephalothin (1-64), Ciprofloxacin (0.015-8), Ertepenem (0.12-32), Gentamicin (0.12-32), Imipenem (0.25-32), Levofloxacin (0.25-16), Meropenem (0.12-32), Piperacillin/Tazobactam (0.25/4-256/4), Tetracycline (0.5-64), Tobramycin (0.12-32), and Trimethoprim/Sulfamethoxazole (0.25/4.7-32/608). […]
Isolates were cultured on trypticase soy agar with 5% sheep blood (BBL, Cockeysville, Md.) and incubated in ambient air at 35±1° C. for 18-24 h. […] Panel results were read visually, and minimal inhibitory concentrations (MIC) were determined.
Proteus strains to be tested were seeded on agar plates and incubated under growth conditions for 24 hours. […] Bacterial growth was determined by observing turbidity. […]

CC1(C)S[C@@H]2[C@H](NC(=O)[C@H](N)c3ccccc3)C(=O)N2[C@H]1C(=O)O [ampicillin, Ampicillin]
resistance of Proteus observed against the agent: high resistance
